# Test system: 380
# Experiment: selective drug sensitivity score (sDSS, relative to normal bone marrow) (sDSS (score)); higher = more potent and effective on the cell line relative to normal bone marrow cells
# Conditions: 72 h
# 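Further: ALL cell lines in 384-well plates, five doses spanning 10,000-fold, each plate scaled between vehicle and 100 µmol/L benzalkonium chloride controls, sDSS an adapted area-under-curve metric.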
row,SMILES,selective drug sensitivity score
1,CCOC(=O)CCNc1cc(N2CCc3ccccc3CC2)nc(-c2ccccn2)n1 [GSK-J4] (top concentration 100000 nM),-9.38
2,Cc1cc(Nc2cc(CN3CCOCC3)c3nc(C)c(Cc4ccc(Cl)cc4F)n3n2)n[nH]1 [Gandotinib] (top concentration 10000 nM),-8.02
3,NC(=O)NO [Hydroxyurea] (top concentration 1000000 nM),-1.04
4,Cc1ccc(NC(=O)c2ccc(CN3CCN(C)CC3)cc2)cc1Nc1nccc(-c2cccnc2)n1 [Imatinib] (top concentration 10000 nM),-0.44
5,CC(C)NC[C@@H](C(=O)N1CCN(c2ncnc3c2[C@H](C)C[C@H]3O)CC1)c1ccc(Cl)cc1 [Ipatasertib] (top concentration 10000 nM),7
6,CCC(C)n1ncn(-c2ccc(N3CCN(c4ccc(OCC5COC(Cn6cncn6)(c6ccc(Cl)cc6Cl)O5)cc4)CC3)cc2)c1=O (stereo not given) [Itraconazole] (top concentration 5000 nM),-1.72
7,Cc1sc2c(c1C)C(c1ccc(Cl)cc1)=N[C@@H](CC(=O)OC(C)(C)C)c1nnc(C)n1-2 [JQ1] (top concentration 10000 nM),-0.88
8,CCNC(=O)c1noc(-c2cc(C(C)C)c(O)cc2O)c1-c1ccc(CN2CCOCC2)cc1 [Luminespib] (top concentration 1000 nM),6.3
9,O=C(c1cccc(Cl)c1F)N1CCN(Cc2cccc(Nc3nccs3)n2)CC1 [MK-8745] (top concentration 10000 nM),18.3
10,Cc1ccc(NC(=O)c2ccc(CN3CCN(C)CC3)cc2)cc1Nc1nc(-c2cccnc2)cs1 [Masitinib] (top concentration 10000 nM),-4.38
11,CCN(CC)CCCC(C)Nc1c2ccc(Cl)cc2nc2ccc(OC)cc12 (stereo not given) [Mepacrine] (top concentration 50000 nM),-1.7
12,COc1ccc(-c2ccc3ncc4c(c3c2)n(-c2ccc(N3CCNCC3)c(C(F)(F)F)c2)c(=O)n4C)cn1 [NVP-BGT226] (top concentration 1000 nM),12.2
13,COc1nc(N)nc2c1ncn2[C@@H]1O[C@H](CO)[C@@H](O)[C@@H]1O [Nelarabine] (top concentration 10000 nM),-6.32
14,Cc1cn(-c2cc(NC(=O)c3ccc(C)c(Nc4nccc(-c5cccnc5)n4)c3)cc(C(F)(F)F)c2)cn1 [Nilotinib] (top concentration 10000 nM),6.1
15,NC(=O)c1cccc2cn(-c3ccc(C4CCCNC4)cc3)nc12 (stereo not given) [Niraparib] (top concentration 10000 nM),15.8
16,COc1ccc(C[C@H](NC(=O)[C@H](C)NC(=O)CN2CCOCC2)C(=O)N[C@@H](Cc2ccccc2)C(=O)[C@@]2(C)CO2)cc1 [ONX-0914] (top concentration 10000 nM),5.5
17,CC(=O)c1cnc2ccc(-c3cc(Cl)c(O)c(Cl)c3)nc2c1N[C@H]1CC[C@H](CN(C)C)CC1 [OTS167] (top concentration 1000 nM),9.38
18,COC(=O)C[C@](O)(CCCC(C)(C)O)C(=O)O[C@@H]1C(OC)=C[C@]23CCCN2CCc2cc4c(cc2[C@H]13)OCO4 [Omacetaxine] (top concentration 10000 nM),14.1

# Test system: 697
# Experiment: as above
# Conditions: 72 h
row,SMILES,selective drug sensitivity score
1,CCOC(=O)CCNc1cc(N2CCc3ccccc3CC2)nc(-c2ccccn2)n1 [GSK-J4] (top concentration 100000 nM),-8.08
2,Cc1cc(Nc2cc(CN3CCOCC3)c3nc(C)c(Cc4ccc(Cl)cc4F)n3n2)n[nH]1 [Gandotinib] (top concentration 10000 nM),5.28
3,NC(=O)NO [Hydroxyurea] (top concentration 1000000 nM),12.8
4,Cc1ccc(NC(=O)c2ccc(CN3CCN(C)CC3)cc2)cc1Nc1nccc(-c2cccnc2)n1 [Imatinib] (top concentration 10000 nM),1.06
5,CC(C)NC[C@@H](C(=O)N1CCN(c2ncnc3c2[C@H](C)C[C@H]3O)CC1)c1ccc(Cl)cc1 [Ipatasertib] (top concentration 10000 nM),2.9
6,CCC(C)n1ncn(-c2ccc(N3CCN(c4ccc(OCC5COC(Cn6cncn6)(c6ccc(Cl)cc6Cl)O5)cc4)CC3)cc2)c1=O (stereo not given) [Itraconazole] (top concentration 5000 nM),0.18
7,Cc1sc2c(c1C)C(c1ccc(Cl)cc1)=N[C@@H](CC(=O)OC(C)(C)C)c1nnc(C)n1-2 [JQ1] (top concentration 10000 nM),9.72
8,CCNC(=O)c1noc(-c2cc(C(C)C)c(O)cc2O)c1-c1ccc(CN2CCOCC2)cc1 [Luminespib] (top concentration 1000 nM),-1.5
9,O=C(c1cccc(Cl)c1F)N1CCN(Cc2cccc(Nc3nccs3)n2)CC1 [MK-8745] (top concentration 10000 nM),8.9
10,Cc1ccc(NC(=O)c2ccc(CN3CCN(C)CC3)cc2)cc1Nc1nc(-c2cccnc2)cs1 [Masitinib] (top concentration 10000 nM),1.32
11,CCN(CC)CCCC(C)Nc1c2ccc(Cl)cc2nc2ccc(OC)cc12 (stereo not given) [Mepacrine] (top concentration 50000 nM),-3.7
12,COc1ccc(-c2ccc3ncc4c(c3c2)n(-c2ccc(N3CCNCC3)c(C(F)(F)F)c2)c(=O)n4C)cn1 [NVP-BGT226] (top concentration 1000 nM),14.2
13,COc1nc(N)nc2c1ncn2[C@@H]1O[C@H](CO)[C@@H](O)[C@@H]1O [Nelarabine] (top concentration 10000 nM),1.58
14,Cc1cn(-c2cc(NC(=O)c3ccc(C)c(Nc4nccc(-c5cccnc5)n4)c3)cc(C(F)(F)F)c2)cn1 [Nilotinib] (top concentration 10000 nM),1.3
15,NC(=O)c1cccc2cn(-c3ccc(C4CCCNC4)cc3)nc12 (stereo not given) [Niraparib] (top concentration 10000 nM),12.9
16,COc1ccc(C[C@H](NC(=O)[C@H](C)NC(=O)CN2CCOCC2)C(=O)N[C@@H](Cc2ccccc2)C(=O)[C@@]2(C)CO2)cc1 [ONX-0914] (top concentration 10000 nM),-5
17,CC(=O)c1cnc2ccc(-c3cc(Cl)c(O)c(Cl)c3)nc2c1N[C@H]1CC[C@H](CN(C)C)CC1 [OTS167] (top concentration 1000 nM),5.48
18,COC(=O)C[C@](O)(CCCC(C)(C)O)C(=O)O[C@@H]1C(OC)=C[C@]23CCCN2CCc2cc4c(cc2[C@H]13)OCO4 [Omacetaxine] (top concentration 10000 nM),10.5

# Test system: ALL-SIL
# Experiment: as above
# Conditions: 72 h
row,SMILES,selective drug sensitivity score
1,CCOC(=O)CCNc1cc(N2CCc3ccccc3CC2)nc(-c2ccccn2)n1 [GSK-J4] (top concentration 100000 nM),-4.58
2,Cc1cc(Nc2cc(CN3CCOCC3)c3nc(C)c(Cc4ccc(Cl)cc4F)n3n2)n[nH]1 [Gandotinib] (top concentration 10000 nM),9.08
3,NC(=O)NO [Hydroxyurea] (top concentration 1000000 nM),3.56
4,Cc1ccc(NC(=O)c2ccc(CN3CCN(C)CC3)cc2)cc1Nc1nccc(-c2cccnc2)n1 [Imatinib] (top concentration 10000 nM),24.9
5,CC(C)NC[C@@H](C(=O)N1CCN(c2ncnc3c2[C@H](C)C[C@H]3O)CC1)c1ccc(Cl)cc1 [Ipatasertib] (top concentration 10000 nM),2.9
6,CCC(C)n1ncn(-c2ccc(N3CCN(c4ccc(OCC5COC(Cn6cncn6)(c6ccc(Cl)cc6Cl)O5)cc4)CC3)cc2)c1=O (stereo not given) [Itraconazole] (top concentration 5000 nM),2.88
7,Cc1sc2c(c1C)C(c1ccc(Cl)cc1)=N[C@@H](CC(=O)OC(C)(C)C)c1nnc(C)n1-2 [JQ1] (top concentration 10000 nM),-1.08
8,CCNC(=O)c1noc(-c2cc(C(C)C)c(O)cc2O)c1-c1ccc(CN2CCOCC2)cc1 [Luminespib] (top concentration 1000 nM),-0.1
9,O=C(c1cccc(Cl)c1F)N1CCN(Cc2cccc(Nc3nccs3)n2)CC1 [MK-8745] (top concentration 10000 nM),11.8
